# “And” between values parts separate entries of the source, which are not always exact repeats. Equal entries are not always repeated.
# Legend:
# hCXCR1 = molecular target: T1, hCXCR1 (Homo sapiens, UniProt P25024); test: CXCR1 SPA Assay ([125I]-IL-8 receptor binding); settings: hCXCR1-CHO overexpressing membranes, [125I]-IL-8 0.05 nM
# T1 construct: purchased Biosignal; host or cells: CHO cells (membranes)
# T1 sequence (P25024 1-350): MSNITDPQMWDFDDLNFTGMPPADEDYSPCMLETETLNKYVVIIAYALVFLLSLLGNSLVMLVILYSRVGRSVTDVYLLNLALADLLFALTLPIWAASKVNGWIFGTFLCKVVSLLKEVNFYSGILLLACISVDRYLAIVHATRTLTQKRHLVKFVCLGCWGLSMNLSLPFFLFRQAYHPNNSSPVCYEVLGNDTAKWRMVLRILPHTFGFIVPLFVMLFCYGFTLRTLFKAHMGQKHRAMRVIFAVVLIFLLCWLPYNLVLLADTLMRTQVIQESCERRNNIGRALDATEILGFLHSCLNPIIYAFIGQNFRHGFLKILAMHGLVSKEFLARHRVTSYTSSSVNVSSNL
# Experimental: For each well of a 96 well plate, a reaction mixture of 2.2 μg hCXCR1-CHO overexpressing membranes (Biosignal) and 100 μg/well WGA-SPA beads (Amersham) in 160 μl was prepared in CXCR1 assay buffer (25 mM HEPES, pH 7.8, 2 mM CaCl2, 1 mM MgCl2, 125 mM NaCl, 0.1% BSA) (Sigma). A 0.5 nM stock of ligand, [125I]-IL-8 (NEN) was prepared in the CXCR1 assay buffer. 10× stock solutions of test compounds were prepared in 10% DMSO (Sigma). The above solutions were added to a 96-well assay plate (PerkinElmer) as follows: 20 μl test compound or DMSO, 160 μl of reaction mixture, 20 μl of ligand stock (Final [Ligand]=0.05 nM). The assay plates were shaken for 5 minutes on plate shaker, then incubated for 12 hours before cpm/well were determined in Microbeta Trilux counter (PerkinElmer). % Inhibition of Total binding-NSB (250 nM IL-8) was determined for IC50 values.
# hCXCR2 = molecular target: T2, hCXCR2 (Homo sapiens, UniProt P25025); test: CXCR2 SPA Assay ([125I]-IL-8 receptor binding); settings: hCXCR2-CHO overexpressing membranes, [125I]-IL-8 0.1 nM
# T2 construct: purchased Biosignal; host or cells: CHO cells (membranes)
# T2 sequence (P25025 1-360): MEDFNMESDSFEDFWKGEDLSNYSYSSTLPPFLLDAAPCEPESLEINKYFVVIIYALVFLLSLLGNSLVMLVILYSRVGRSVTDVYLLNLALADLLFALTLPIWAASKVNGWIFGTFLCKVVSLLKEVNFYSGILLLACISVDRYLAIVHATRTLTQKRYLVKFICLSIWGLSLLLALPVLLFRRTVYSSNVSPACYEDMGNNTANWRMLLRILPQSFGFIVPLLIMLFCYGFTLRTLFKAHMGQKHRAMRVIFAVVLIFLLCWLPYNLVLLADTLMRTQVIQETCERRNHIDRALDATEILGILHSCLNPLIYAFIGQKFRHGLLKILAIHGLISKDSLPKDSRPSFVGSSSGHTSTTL
# Experimental: For each well of a 96 well plate, a reaction mixture of 2.5 μg hCXCR2-CHO overexpressing membranes (Biosignal) and 200 μg/well WGA-SPA beads (Amersham) in 160 μl was prepared in CXCR2 assay buffer (25 mM HEPES, pH 7.4, 2 mM CaCl2, 1 mM MgCl2). A 1 nM stock of ligand, [125I]-IL-8 (NEN), was prepared in the CXCR2 assay buffer. 10× stock solutions of test compounds were prepared in DMSO (Sigma). The above solutions were added to a 96-well assay plate (PerkinElmer or Corning) as follows: 20 μl test compound or DMSO, 160 μl of reaction mixture, 20 μl of ligand stock (Final [Ligand]=0.1 nM). The assay plates were shaken for 5 minutes on a plate shaker, then incubated for 12 hours before cpm/well were determined in Microbeta Trilux counter (PerkinElmer).
compound,measurement,setting,value
CNS(=O)(=O)c1scc(NC(=O)Nc2cccc(Cl)c2Cl)c1O [Example 21.14],Ki,hCXCR1,0.652 to 1.92 µM
same,Ki,hCXCR2,0.005 to 0.091 µM and 0.005 to 0.01 µM
CC(C)CN(C)S(=O)(=O)c1scc(NC(=O)Nc2cccc(Cl)c2Cl)c1O [Example 21.3],Ki,hCXCR2,0.005 to 0.091 µM
CCN(C)S(=O)(=O)c1scc(NC(=S)Nc2cccc(Cl)c2Cl)c1O [Example 22],Ki,hCXCR2,0.005 to 0.091 µM
same,melting point,,112 to 115 °C
CCN(CC)S(=O)(=O)c1scc(NC(=O)Nc2cccc(Cl)c2Cl)c1O [Example 20.3],Ki,hCXCR1,0.652 to 1.92 µM
same,Ki,hCXCR2,0.005 to 0.091 µM
CN(C(C)(C)C)S(=O)(=O)c1scc(NC(=O)Nc2cccc(Cl)c2Cl)c1O [Example 20.14],Ki,hCXCR1,0.652 to 1.92 µM and 0.652 µM
CC(C)(C)NS(=O)(=O)c1scc(NC(=O)Nc2cccc(Cl)c2Cl)c1O [Example 20.13],Ki,hCXCR1,0.652 to 1.92 µM
CN(C1CCC1)S(=O)(=O)c1scc(NC(=O)Nc2cccc(Cl)c2Cl)c1O [Example 20.17],Ki,hCXCR2,0.005 to 0.091 µM
CCN(C)S(=O)(=O)c1scc(NC(=O)Nc2cccc(Cl)c2Cl)c1O [Example 21],Ki,hCXCR2,0.005 to 0.091 µM
CCNS(=O)(=O)c1scc(NC(=O)Nc2ccccc2Br)c1O [Example 20.10],Ki,hCXCR2,0.005 to 0.091 µM
O=C(Nc1csc(S(=O)(=O)N2CCC[C@H]2CO)c1O)Nc1cccc(Cl)c1Cl [Example 21.7],Ki,hCXCR1,0.652 to 1.92 µM
same,Ki,hCXCR2,0.005 to 0.091 µM and 0.005 to 0.01 µM
O=C(Nc1ccccc1Br)Nc1csc(S(=O)(=O)N2CCCC2)c1O [Example 20.19],Ki,hCXCR1,0.652 to 1.92 µM
same,Ki,hCXCR2,0.005 to 0.091 µM
O=C(Nc1csc(S(=O)(=O)NC2CC2)c1O)Nc1cccc(Cl)c1Cl [Example 21.10],Ki,hCXCR1,0.652 to 1.92 µM
same,Ki,hCXCR2,0.005 to 0.091 µM
CC(C)[C@@H](CO)NS(=O)(=O)c1scc(NC(=O)Nc2cccc(Cl)c2Cl)c1O [Example 21.12],Ki,hCXCR2,0.005 to 0.091 µM
CCCCN(C)S(=O)(=O)c1scc(NC(=O)Nc2cccc(Cl)c2Cl)c1O [Example 21.2],Ki,hCXCR2,0.005 to 0.091 µM
O=C(Nc1csc(S(=O)(=O)N2CCCC2)c1O)Nc1cccc(Cl)c1Cl [Example 20.18],Ki,hCXCR1,0.652 to 1.92 µM
same,Ki,hCXCR2,0.005 to 0.091 µM
O=C(Nc1csc(S(=O)(=O)N2CCC[C@@H]2CO)c1O)Nc1cccc(Cl)c1Cl [Example 21.6],Ki,hCXCR1,0.652 to 1.92 µM
same,Ki,hCXCR2,0.005 to 0.091 µM and 0.005 to 0.01 µM
CCN(C(C)(C)C)S(=O)(=O)c1scc(NC(=O)Nc2cccc(Cl)c2Cl)c1O [Example 20.15],Ki,hCXCR1,0.652 to 1.92 µM
same,Ki,hCXCR2,0.005 to 0.091 µM
CC(C)NS(=O)(=O)c1scc(NC(=O)Nc2ccccc2Br)c1O [Example 20.12],Ki,hCXCR2,0.005 to 0.091 µM
CCNS(=O)(=O)c1scc(NC(=O)Nc2cccc(Cl)c2Cl)c1O [Example 20.7],Ki,hCXCR2,0.005 to 0.091 µM
CN(C1CC1)S(=O)(=O)c1scc(NC(=O)Nc2cccc(Cl)c2Cl)c1O [Example 20.16],Ki,hCXCR1,0.652 to 1.92 µM
same,Ki,hCXCR2,0.005 to 0.091 µM and 0.005 to 0.01 µM and 0.006 µM
CC(C)N(C)S(=O)(=O)c1scc(NC(=O)Nc2cccc(Cl)c2Cl)c1O [Example 21.4],Ki,hCXCR2,0.005 to 0.091 µM and 0.005 to 0.01 µM
CN(C)S(=O)(=O)c1scc(NC(=O)Nc2ccccc2Br)c1O [Example 20.1],Ki,hCXCR2,0.005 to 0.091 µM
CCCN(C)S(=O)(=O)c1scc(NC(=O)Nc2cccc(Cl)c2Cl)c1O [Example 21.1],Ki,hCXCR2,0.005 to 0.091 µM and 0.005 to 0.01 µM
O=C(Nc1csc(S(=O)(=O)NC2(CO)CCCC2)c1O)Nc1cccc(Cl)c1Cl [Example 21.8],Ki,hCXCR2,0.005 to 0.091 µM
CCN1CCN(S(=O)(=O)c2scc(NC(=O)Nc3cccc(Cl)c3Cl)c2O)CC1 [Example 21.5],Ki,hCXCR1,0.652 to 1.92 µM
same,Ki,hCXCR2,0.005 to 0.091 µM
CC(C)NS(=O)(=O)c1scc(NC(=O)Nc2cccc(Cl)c2Cl)c1O [Example 20.11],Ki,hCXCR1,0.652 to 1.92 µM
CN(C)S(=O)(=O)c1scc(NC(=O)Nc2cccc(Cl)c2Cl)c1O [Example 20],Ki,hCXCR2,0.005 to 0.091 µM
NS(=O)(=O)c1scc(NC(=O)Nc2cccc(Cl)c2Cl)c1O [Example 20.21],Ki,hCXCR2,0.005 to 0.091 µM

# Reference: patent US7326729B2, “CXCR1 and CXCR2 chemokine antagonists” (Schering Corporation, priority 2004, dated 2008)
